“Also recorded” adds a separate entry of the source.
Columns and labels:
μ opioid receptor = μ opioid receptor (Cavia porcellus, UniProt A0ACM8Q262); test: competitive binding assay with [3H]DAMGO in guinea pig brain membranes; conditions: for affinity for the μ opioid receptor, in words: comparator, if any, as in the value; for Ki: read-out: Ki, μ opioid receptor, [3H]DAMGO, guinea pig brain membranes
κ opioid receptor = target: T1, κ opioid receptor (Cavia porcellus, UniProt P41144); test: competitive binding assay with [3H]U69,593 in guinea pig brain membranes; conditions: for κ/δ selectivity: κ versus δ binding; for affinity for the κ opioid receptor, in words: comparator, if any, as in the value; for increase in affinity at the κ opioid receptor: relative to levorphanol
T1 construct: from tissue; host or cells: guinea pig brain membranes

δ opioid receptor = target: T2, δ opioid receptor (Cavia porcellus, UniProt A0A286XTF2); test: competitive binding assay with [3H]naltrindole in guinea pig brain membranes
T2 construct: from tissue; host or cells: guinea pig brain membranes

## I/C=C\CN1CC[C@]23CCCC[C@H]2[C@H]1Cc1ccccc13 [Compound 35, N-(3-iodoprop-(2Z)-enyl)morphinan]
μ opioid receptor; relative to 34
  decreased affinity for the μ receptor: 100 fold
κ opioid receptor; relative to 34
  decreased affinity for the κ receptor: 17 fold

## Oc1ccc2c(c1)[C@@]13CCCC[C@H]1[C@@H](C2)N(CC1CC1)CC3 [cyclorphan, reference compound]
κ opioid receptor
  κ/δ selectivity: 4 fold

## Oc1ccc2c(c1)[C@@]13CCCC[C@H]1[C@@H](C2)N(CC1CCC1)CC3 [MCL-101, reference compound]
μ opioid receptor
  affinity for the μ opioid receptor, in words: almost the same affinity for the μ and κ opioid receptors as cyclorphan
μ opioid receptor; relative to levorphanol
  increase in affinity at the μ opioid receptor: 2 fold
κ opioid receptor
  affinity for the κ opioid receptor, in words: almost the same affinity for the μ and κ opioid receptors as cyclorphan
  increase in affinity at the κ opioid receptor: 30 fold
  κ/δ selectivity: 18 fold
δ opioid receptor; relative to levorphanol
  increase in affinity at the δ opioid receptor: 3 fold

## I/C=C/CN1CC[C@]23CCCC[C@H]2[C@H]1Cc1ccccc13 [Compound 34, N-(3-iodoprop-(2E)-enyl)morphinan]
μ opioid receptor
  affinity for the μ opioid receptor, in words: Ki values in the picomolar range; also recorded: very high affinity
κ opioid receptor
  affinity for the κ opioid receptor, in words: Ki values in the picomolar range; also recorded: very high affinity
κ opioid receptor; in comparison to compound 9
  decreased affinity for the κ opioid receptor: 10 fold
δ opioid receptor; in comparison to compound 9
  decreased affinity for the δ opioid receptor: 43 fold

## C=CCN1CC[C@]23CCCC[C@H]2[C@H]1Cc1ccc(O)cc13 [Compound 8, levallorphan, reference compound]
μ opioid receptor; relative to levorphanol
  change in affinity for the μ opioid receptor, in words: almost no changes in affinity
κ opioid receptor
  increase in affinity at the κ opioid receptor: 15 fold
δ opioid receptor; relative to levorphanol
  change in affinity for the δ opioid receptor, in words: almost no changes in affinity

## Oc1ccc2c(c1)[C@@]13CCCC[C@H]1[C@@H](C2)N(CCCF)CC3 [Compound 3]
μ opioid receptor
  affinity for the μ opioid receptor, in words: high affinity
  Ki: 0.18 nM
κ opioid receptor
  Ki: 0.083 nM
  affinity for the κ opioid receptor, in words: high affinity
δ opioid receptor
  Ki: 0.85 nM

## COCCN1CC[C@]23CCCC[C@H]2[C@H]1Cc1ccc(O)cc13 [Compound 6]
μ opioid receptor
  affinity for the μ opioid receptor, in words: high affinity
  Ki: 0.11 nM
κ opioid receptor
  Ki: 0.094 nM
  affinity for the κ opioid receptor, in words: high affinity
